# Starred links: 1 amine or outer side, 2 acyl side, 3 side chain; linkers in the order of their positions; H or OH if unused. Residues, ends and D or L forms follow the SMILES beside them. *: point of attachment. AFC = O=c1cc(C(F)(F)F)c2ccc(N*)cc2o1; Morpholide = C1CN(*)CCO1; CO = O=C([*:1])[*:2]
# Biological target: purified Taenia solium cysteine protease
# Experiment: Competitor assay: vehicle inhibition of cleavage of high Vmax AFC substrate cocktails (Step III)
# Assay type: biochemical
# Conditions: preliminary results, in comparison to the battery of substrates
# Procedure: (We employed “Vmax” here although Kcat could also be used). Due to the lower number of substrates, a percentage was not chosen for the “BOTTOM %” substrates. Alternately, all substrates which were not cleaved as determined by a value of 10 μM/hr or less, were chosen to be tested in this step for competitive ability. From this point forth, the term “vehicle” will represent low Vmax substrates that were capable of inhibiting cleavage of the percent cocktails. In this instance, we tested for “vehicles” which inhibited cleavage of the TOP 1.4% cocktail (they were delivered into the active site). Based upon our results from Step II, the top 1.4% cocktail was composed of Z-Phe-Arg-AFC, the highest cleaved substrate.
# The experiment began with a competitor test between the noncleaved low Vmax substrates and the highest Vmax substrate, Z-Phe-Arg-AFC. Concentrations were varied between the low Vmax substrate and Z-Phe-Arg-AFC, as described above under “refinement of assay” until a relative inhibition profile was obtained.
# The mixture was allowed to equilibrate for a period of 30 minutes. Finally, active purified enzyme was added to the tubes at a concentration which was always 50 times less than the concentration of the high and low Vmax substrates, in order to insure saturation conditions. This concentration varied from purification to purification and the amount added depended upon the yield and specific activity of the purified protease.
# Positive controls were set up similarly as described for test controls, except that solvent was added in substitution for the low Vmax substrate (in a volume equal to the low Vmax volume addition). All of the substrates could be dissolved in dimethylsulfoxide (DMSO), and therefore, this was the solvent of choice. Negative controls were set up by adding the low Vmax and the high Vmax substrate in a tube without the protease. All potential non-proteolytic induced liberation of AFC was therefore controlled for in this tube (a feature which also insured stability of the AFC substrates, since these substrates will freely liberate AFC when unstable). A tube set will be established for this negative control.
# All controls were set up in triplicate, and experiments repeated a minimum of five times. The assays were incubated at 37° C., for 18 hours overnight.
# Percent inhibition was calculated as: [formula]
# A 2.9% cocktail of the high Vmax substrates was made. This was composed of Z-FR-AFC and the second most cleaved substrate, Z-FAR-AFC. The vehicles promoted from the initial screenings above were again tested for competitive inhibition ability with the new cocktails. Their concentrations were set identically to those which were “fixed” in the previous protocols. […]
compound,measurement,value
"CC(C)C[C@H](NC(=O)N1CCOCC1)C(=O)N[C@@H](Cc1ccc(O)cc1)C(=O)Nc1ccc2c(C(F)(F)F)cc(=O)oc2c1 [Mu-LY-AFC, Mu-Leu-Tyr-AFC] ({Morpholide-CO}-Leu-Tyr-{AFC})",Ki of vehicles (ranking; values not reported),lowest Ki values

# Source: patent US20030077653A1, “Method for the identification of active site protease inactivators” (The University of Georgia Research Foundation, Inc., priority 2000, published 2003)
